# Results from the supplement of paper PMC10307832.
# What was measured:
# Experiment in all cases: relative viability (nuclei count vs DMSO), 5 days (fraction); higher = more cells survive
# [1] = test system: A-427
# How it was run: (§1)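 Values are medians from duplicate plates. Each reflects relative viability, defined as the nuclei count of treated wells over that of vehicle wells. Lung cancer cell lines in 1536-well plates were pin-tool dosed one day after seeding with one drug alone or with a fixed anchor-drug dose plus five library-drug doses (not always all listed) in √10 steps, then fixed, stained and imaged at 4× after 5 days.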
# [2] = test system: HCC-15
# How it was run: as §1
# [3] = test system: HCC-78
# How it was run: as §1
# [4] = test system: HOP-62
# How it was run: as §1
# [5] = test system: LC-2-ad
# How it was run: as §1
# [6] = test system: LOU-NH91
# How it was run: as §1
# [7] = test system: LXF-289
# How it was run: as §1
# [8] = test system: NCI-H1734
# How it was run: as §1
# [9] = test system: NCI-H1755
# How it was run: as §1
# [10] = test system: NCI-H1792
# How it was run: as §1
# [11] = test system: NCI-H1915
# How it was run: as §1
# [12] = test system: NCI-H1975
# How it was run: as §1
# [13] = test system: NCI-H2126
# How it was run: as §1
# [14] = test system: NCI-H2228
# How it was run: as §1
# [15] = test system: NCI-H2342
# How it was run: as §1
# [16] = test system: NCI-H2347
# How it was run: as §1
# [17] = test system: NCI-H358
# How it was run: as §1
# [18] = test system: NCI-H460
# How it was run: as §1
# [19] = test system: NCI-H522
# How it was run: as §1
# [20] = test system: NCI-H647
# How it was run: as §1
# [21] = test system: PC-3 [JPC-3]
# How it was run: as §1
# [22] = test system: RERF-LC-KJ
# How it was run: as §1
# [23] = test system: SK-LU-1
# How it was run: as §1
# [24] = test system: SW 1573
# How it was run: as §1
structure (smiles),measurement,setting,value
COc1cc(N2CCC(C(N)=O)CC2)ccc1Nc1nc(N)c(Cl)c(Nc2ccccc2S(=O)(=O)C(C)C)n1 [HG-5-88-01] + O=C(c1cc(Cc2n[nH]c(=O)c3ccccc23)ccc1F)N1CCN(C(=O)C2CC2)CC1 [Olaparib] (partner 8 µM),relative viability,[1]; first compound 0.04 µM,0.652
same,relative viability,[1]; first compound 0.1265 µM,0.807
same,relative viability,[1]; first compound 0.4 µM,0.762
same,relative viability,[1]; first compound 1.265 µM,0.746
same,relative viability,[1]; first compound 4 µM,0.513
same,relative viability,[2]; first compound 0.04 µM,0.738
same,relative viability,[2]; first compound 0.1265 µM,0.616
same,relative viability,[2]; first compound 0.4 µM,0.883
same,relative viability,[2]; first compound 1.265 µM,0.707
same,relative viability,[2]; first compound 4 µM,0.7
same,relative viability,[3]; first compound 0.04 µM,0.868
same,relative viability,[3]; first compound 0.1265 µM,0.664
same,relative viability,[3]; first compound 0.4 µM,0.511
same,relative viability,[3]; first compound 1.265 µM,0.302
same,relative viability,[3]; first compound 4 µM,0.422
same,relative viability,[4]; first compound 0.04 µM,0.426
same,relative viability,[4]; first compound 0.1265 µM,0.511
same,relative viability,[4]; first compound 0.4 µM,0.396
same,relative viability,[4]; first compound 1.265 µM,0.538
same,relative viability,[4]; first compound 4 µM,0.283
same,relative viability,[5]; first compound 0.04 µM,0.691
same,relative viability,[5]; first compound 0.1265 µM,0.692
same,relative viability,[5]; first compound 0.4 µM,0.725
same,relative viability,[5]; first compound 1.265 µM,0.692
same,relative viability,[5]; first compound 4 µM,0.721
same,relative viability,[6]; first compound 0.04 µM,0.861
same,relative viability,[6]; first compound 0.1265 µM,0.882
same,relative viability,[6]; first compound 0.4 µM,0.733
same,relative viability,[6]; first compound 1.265 µM,0.514
same,relative viability,[6]; first compound 4 µM,0.618
same,relative viability,[7]; first compound 0.04 µM,0.988
same,relative viability,[7]; first compound 0.1265 µM,1.13
same,relative viability,[7]; first compound 0.4 µM,1.02
same,relative viability,[7]; first compound 1.265 µM,1.07
same,relative viability,[7]; first compound 4 µM,1.08
same,relative viability,[8]; first compound 0.04 µM,0.681
same,relative viability,[8]; first compound 0.1265 µM,0.583
same,relative viability,[8]; first compound 0.4 µM,0.642
same,relative viability,[8]; first compound 1.265 µM,0.54
same,relative viability,[8]; first compound 4 µM,0.558
same,relative viability,[9]; first compound 0.04 µM,0.811
same,relative viability,[9]; first compound 0.1265 µM,0.869
same,relative viability,[9]; first compound 0.4 µM,0.874
same,relative viability,[9]; first compound 1.265 µM,0.849
same,relative viability,[9]; first compound 4 µM,0.928
same,relative viability,[10]; first compound 0.04 µM,0.513
same,relative viability,[10]; first compound 0.1265 µM,0.424
same,relative viability,[10]; first compound 0.4 µM,0.434
same,relative viability,[10]; first compound 1.265 µM,0.397
same,relative viability,[10]; first compound 4 µM,0.484
same,relative viability,[11]; first compound 0.04 µM,0.259
same,relative viability,[11]; first compound 0.1265 µM,0.25
same,relative viability,[11]; first compound 0.4 µM,0.304
same,relative viability,[11]; first compound 1.265 µM,0.266
same,relative viability,[11]; first compound 4 µM,0.248
same,relative viability,[12]; first compound 0.04 µM,0.834
same,relative viability,[12]; first compound 0.1265 µM,0.822
same,relative viability,[12]; first compound 0.4 µM,0.782
same,relative viability,[12]; first compound 1.265 µM,0.715
same,relative viability,[12]; first compound 4 µM,0.419
same,relative viability,[13]; first compound 0.04 µM,0.972
same,relative viability,[13]; first compound 0.1265 µM,0.911
same,relative viability,[13]; first compound 0.4 µM,0.939
same,relative viability,[13]; first compound 1.265 µM,0.822
same,relative viability,[13]; first compound 4 µM,0.872
same,relative viability,[14]; first compound 0.04 µM,0.538
same,relative viability,[14]; first compound 0.1265 µM,0.36
same,relative viability,[14]; first compound 0.4 µM,0.424
same,relative viability,[14]; first compound 1.265 µM,0.227
same,relative viability,[14]; first compound 4 µM,0.253
same,relative viability,[15]; first compound 0.04 µM,0.449
same,relative viability,[15]; first compound 0.1265 µM,0.538
same,relative viability,[15]; first compound 0.4 µM,0.473
same,relative viability,[15]; first compound 4 µM,0.474
same,relative viability,[16]; first compound 0.04 µM,0.664
same,relative viability,[16]; first compound 0.1265 µM,0.569
same,relative viability,[16]; first compound 0.4 µM,0.61
same,relative viability,[16]; first compound 1.265 µM,0.539
same,relative viability,[16]; first compound 4 µM,0.549
same,relative viability,[17]; first compound 0.04 µM,0.569
same,relative viability,[17]; first compound 0.1265 µM,0.568
same,relative viability,[17]; first compound 0.4 µM,0.545
same,relative viability,[17]; first compound 1.265 µM,0.242
same,relative viability,[17]; first compound 4 µM,0.466
same,relative viability,[18]; first compound 0.04 µM,0.415
same,relative viability,[18]; first compound 0.1265 µM,0.498
same,relative viability,[18]; first compound 0.4 µM,0.388
same,relative viability,[18]; first compound 1.265 µM,0.356
same,relative viability,[18]; first compound 4 µM,0.503
same,relative viability,[19]; first compound 0.04 µM,0.724
same,relative viability,[19]; first compound 0.1265 µM,0.665
same,relative viability,[19]; first compound 0.4 µM,0.761
same,relative viability,[19]; first compound 1.265 µM,0.574
same,relative viability,[19]; first compound 4 µM,0.594
same,relative viability,[20]; first compound 0.04 µM,0.552
same,relative viability,[20]; first compound 0.1265 µM,0.553
same,relative viability,[20]; first compound 1.265 µM,0.667
same,relative viability,[20]; first compound 4 µM,0.738
same,relative viability,[21]; first compound 0.04 µM,1.15
same,relative viability,[21]; first compound 0.1265 µM,1.14
same,relative viability,[21]; first compound 0.4 µM,1.04
same,relative viability,[21]; first compound 1.265 µM,0.379
same,relative viability,[21]; first compound 4 µM,0.506
same,relative viability,[22]; first compound 0.04 µM,0.937
same,relative viability,[22]; first compound 0.1265 µM,0.957
same,relative viability,[22]; first compound 0.4 µM,0.878
same,relative viability,[22]; first compound 1.265 µM,0.884
same,relative viability,[22]; first compound 4 µM,0.519
same,relative viability,[23]; first compound 0.04 µM,0.447
same,relative viability,[23]; first compound 0.1265 µM,0.442
same,relative viability,[23]; first compound 0.4 µM,0.444
same,relative viability,[23]; first compound 1.265 µM,0.417
same,relative viability,[23]; first compound 4 µM,0.295
same,relative viability,[24]; first compound 0.04 µM,0.562
same,relative viability,[24]; first compound 0.1265 µM,0.554
same,relative viability,[24]; first compound 0.4 µM,0.438
same,relative viability,[24]; first compound 1.265 µM,0.368
same,relative viability,[24]; first compound 4 µM,0.375
